A short description of the data set: collision cross section in nitrogen (drift tube, single-field); higher = larger gas-phase ion size.
Setting [1] is: ion type: [M+H], ion source: ESI, ion mode: Positive.
The mark [2] stands for this setting: ion type: [M+Na], ion source: ESI, ion mode: Positive.
Setting [3] is: ion type: [M-H], ion source: ESI, ion mode: Negative.
The mark [4] stands for this setting: ion type: [M+H], ion source: APCI, ion mode: Positive.

SMILES strings stand for the structures. Where a name gives a salt, the structure may show the parent alone.
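Note: chemical standards at 10 µM analysed by drift tube IMS-QTOF MS in about 3.95 torr nitrogen, mean of duplicate injections differing ≤1%, mass error below 10 ppm.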

For `N[C@@H](Cc1cc(I)c(Oc2cc(I)c(O)c(I)c2)c(I)c1)C(=O)O` [Levothyroxine], under setting [1], the “collision cross section in nitrogen” value was 213.4 Å².
For the molecule `CCCCCCCCOC(=O)c1ccccc1C(=O)O` [Octyl hydrogen phthalate], the “collision cross section in nitrogen” value is, setting by setting: under setting [2], 181.5 Å²; under setting [3], 168 Å².
Consider `S=C(NC1CCCCC1)NC1CCCCC1` [N,N'-Dicyclohexylthiourea], for which the “collision cross section in nitrogen” value under setting [4] is given as 163 Å², the “collision cross section in nitrogen” value under setting [1] is on record as 162.9 Å² and the “collision cross section in nitrogen” value under setting [3] is recorded as 165.7 Å².
Take `CCNC(=O)C1CC(C)CCC1C(C)C` (stereo not given) [N-Ethyl-2-(isopropyl)-5-methylcyclohexanecarboxamide]: the “collision cross section in nitrogen” value runs as follows: under setting [4], 153.5 Å²; under setting [1], 152.7 Å²; under setting [2], 171.3 Å²; under setting [3], 155.6 Å².
In the case of `CN1CCC[C@H]1c1cccnc1` [Nicotine sulfate (2:1)], the “collision cross section in nitrogen” value under setting [4] came out at 137 Å² and the “collision cross section in nitrogen” value under setting [1] is reported as 137.7 Å².
For the molecule `CN(CCOc1ccc(CC2SC(=O)NC2=O)cc1)c1ccccn1` (stereo not given) [Rosiglitazone maleate], the “collision cross section in nitrogen” value amounted to 172.4 Å² under setting [4], 172.5 Å² under setting [1], 182.7 Å² under setting [2] and 176.3 Å² under setting [3].
As for `CCCCCCCCCCCC[N+](C)(C)CCCCCCCCCCCC` [Didodecyldimethylammonium bromide], the “collision cross section in nitrogen” value (ion source: ESI, ion mode: Positive, ion type: [M]+ (permanent cation)) was determined as 225.6 Å².
As to `Clc1cccc(Cl)c1NC1=NCCN1` [Clonidine hydrochloride], the “collision cross section in nitrogen” value runs as follows: under setting [4], 147.1 Å²; under setting [1], 146.5 Å²; under setting [3], 145.8 Å².
On to `CCc1ccccc1O` [2-Ethylphenol], for which the “collision cross section in nitrogen” value under setting [3] came to 124.3 Å².
The same measure, in the same setting: the same measure for `Oc1ccccc1I` [2-Iodophenol]: 121.9 Å²; for `CNC[C@H](O)c1cccc(O)c1` [(-)-Phenylephrine hydrochloride]: 138.7 Å²; for `NS(=O)(=O)C(F)(F)C(F)(F)C(F)(F)C(F)(F)C(F)(F)C(F)(F)C(F)(F)C(F)(F)F` [Perfluorooctanesulfonamide]: 170.4 Å².
The same measure, in the same setting: the value for `CCCN(CCC)c1c([N+](=O)[O-])cc(S(N)(=O)=O)cc1[N+](=O)[O-]` [Oryzalin] was 177.3 Å².
Take `O=c1c2ccccc2oc2ccccc12` [Xanthone]: the “collision cross section in nitrogen” value under setting [4] is given as 135.2 Å².
`CC(C)(C)c1cc([N+](=O)[O-])cc([N+](=O)[O-])c1O` [Dinoterb]: the “collision cross section in nitrogen” value under setting [3] is recorded as 150.1 Å².
With `Cc1oc(-c2ccccc2)nc1CCOc1cccc2c1ccn2CCC(=O)O`, the “collision cross section in nitrogen” value under setting [4] was 190.8 Å², the “collision cross section in nitrogen” value under setting [1] stood at 190.6 Å² and the “collision cross section in nitrogen” value under setting [2] amounted to 186.3 Å².
Take `O=C(O)c1ccccc1-n1cc(C(=O)O)c(=O)c2cc(Nc3c(F)cc(F)cc3Cl)c(Cl)cc21` [AVE9423]: the “collision cross section in nitrogen” value is listed as 210.6 Å² under setting [4], 210.8 Å² under setting [1], 223.5 Å² under setting [2] and 216.1 Å² under setting [3].
Take `O=C(NC(=O)c1c(F)cccc1F)Nc1cc(Cl)c(OC(F)(F)C(F)C(F)(F)F)cc1Cl` (stereo not given) [Lufenuron]: under setting [3], the “collision cross section in nitrogen” value is recorded as 205.4 Å².
Turning to `Cc1ccc(OP(=O)(Oc2ccc(C)cc2)Oc2ccc(C)cc2)cc1` [Tris(4-methylphenyl) phosphate], the “collision cross section in nitrogen” value was determined as 191 Å² under setting [4], 190.1 Å² under setting [1] and 200.1 Å² under setting [2].
Turning to `O=S(=O)(O)c1cccc2ccccc12` [Sodium 1-naphthalenesulfonate], the “collision cross section in nitrogen” value under setting [3] is 141.6 Å².
Turning to `O=C1c2ccccc2C(=O)N1CCc1noc(-c2ccc(CN3CCCCCC3)s2)n1`, the “collision cross section in nitrogen” value was 214.3 Å² under setting [4], 213.7 Å² under setting [1] and 213.7 Å² under setting [2].
With `O=C1c2ccccc2C(=O)c2c1ccc1ccccc21` [7,12-Benz(a)anthraquinone], the “collision cross section in nitrogen” value under setting [3] was determined as 155.7 Å².
The same measure, in the same setting: the value for `Cc1ccc(S(=O)(=O)O)c(C)c1` [Sodium m-xylene-4-sulfonate] was 138.9 Å².
For `CC1CCc2nccnc21` (stereo not given) [6,7-Dihydro-5-methyl-5H-cyclopentapyrazine], under setting [4], the “collision cross section in nitrogen” value was determined as 127.6 Å².
On to `CCc1ccc(O)cc1` [4-Ethylphenol], for which the “collision cross section in nitrogen” value (ion type: [M+], ion source: APCI, ion mode: Positive) amounted to 123.4 Å² and the “collision cross section in nitrogen” value under setting [3] turned out to be 128.7 Å².
For `COP(=O)(OC)O/C(C)=C/C(=O)N(C)C` [Dicrotophos], the “collision cross section in nitrogen” value under setting [4] came out at 150.2 Å² and the “collision cross section in nitrogen” value under setting [2] was determined as 153.2 Å².
Consider `Oc1ccc(Cl)cc1Cc1ccccc1` [Clorophene], for which the “collision cross section in nitrogen” value under setting [3] came to 149.3 Å².
In the case of `Cc1cc(CCN2CCN(c3nsc4ccccc34)CC2)cc2c1NC(=O)CC2(C)C`, the “collision cross section in nitrogen” value turned out to be 202.2 Å² under setting [4], 202.4 Å² under setting [1], 205.3 Å² under setting [2] and 209.3 Å² under setting [3].
With `O=C(O)C(F)(F)C(F)(F)C(F)(F)C(F)(F)C(F)(F)C(F)(F)C(F)(F)F` [Perfluorooctanoic acid], the “collision cross section in nitrogen” value under setting [3] was 157 Å².
On the same count and under the same terms, the same measure for `O=S(=O)(O)c1ccccc1` [Benzenesulfonic acid]: 127.2 Å².
As to `C[N+](C)(C)CC(=O)[O-]` [Betaine], the “collision cross section in nitrogen” value reads like this: under setting [1], 121.4 Å²; under setting [2], 133.3 Å².
Regarding `CCCCCCCCCc1ccc(O)cc1` [4-Nonylphenol], the “collision cross section in nitrogen” value under setting [3] was 161.4 Å².
Same read-out and setting: the value for `O=C(O)c1c(Cl)ccc(Cl)c1Cl` [2,3,6-Trichlorobenzoic acid] was 143.9 Å².
Still for that read-out and setting: the same measure for `CCCN(CCC)c1c([N+](=O)[O-])cc(S(C)(=O)=O)cc1[N+](=O)[O-]` [Nitralin]: 177 Å²; for `Cc1c(N(C)CS(=O)(=O)O)c(=O)n(-c2ccccc2)n1C` [Dipyrone monohydrate]: 173.9 Å².
As to `Cc1ccc2oc(CN(Cc3ccccc3)C(=O)Nc3c(F)cc(F)cc3F)c(-c3ccc(Cl)cc3)c2c1`, the “collision cross section in nitrogen” value is on record as 226.8 Å² under setting [2] and 225.2 Å² under setting [3].
As to `CCCOC(=O)c1ccc(C(=O)OCCC)nc1` [Dipropyl 2,5-pyridinedicarboxylate], the “collision cross section in nitrogen” value runs as follows: under setting [4], 163.2 Å²; under setting [1], 163.2 Å²; under setting [2], 178.6 Å².
With `CCCCCCOC(=O)CC` [Hexyl propanoate], the “collision cross section in nitrogen” value under setting [3] is 146.3 Å².
For the molecule `Cc1nc(N(C)C)nc(OC(=O)N(C)C)c1C` [Pirimicarb], the “collision cross section in nitrogen” value runs as follows: under setting [4], 152 Å²; under setting [1], 156.4 Å²; under setting [2], 164.2 Å².
Consider `CC(C)c1cccc(C(C)C)c1N` [2,6-Diisopropylaniline], for which the “collision cross section in nitrogen” value under setting [4] is on record as 146.6 Å².
On to `Cc1c(N(C)C)c(=O)n(-c2ccccc2)n1C` [4-Dimethylaminoantipyrine], for which the “collision cross section in nitrogen” value under setting [4] worked out at 152.1 Å², the “collision cross section in nitrogen” value under setting [1] is reported as 152.5 Å² and the “collision cross section in nitrogen” value under setting [2] came to 166.2 Å².
Regarding `CC(C)Oc1cc(-n2nc(C(C)(C)C)oc2=O)c(Cl)cc1Cl` [Oxadiazon], the “collision cross section in nitrogen” value under setting [3] is on record as 177.1 Å².
Regarding `COc1cc2c(c(OC)c1OC)-c1ccc(OC)c(=O)cc1[C@@H](NC(C)=O)CC2` [Colchicine], the “collision cross section in nitrogen” value is on record as 197 Å² under setting [4], 195.9 Å² under setting [1], 204.3 Å² under setting [2] and 197.3 Å² under setting [3].

These data come from the supplement of paper PMC12317010.
